# Data: patent US9802918B2, “Pyridineamine compounds useful as Pim kinase inhibitors” (Incyte Corporation, priority 2015, dated 2017)
# Key:
# Assay type in all cases: biochemical
# [1] = target: Pim-3 (Homo sapiens (Human), UniProt Q86V86); test: Pim-3 kinase assay; conditions: 1 mM ATP; read-out: Pim3 IC50
# How it was run: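 Human Pim-3 at 1.25 pM phosphorylated […] biotin-BAD peptide with 1 mM ATP for 1 h at 25° C, in pH 7.5 Tris buffer with 5 mM MgCl2 and 5 mM DTT. Reactions were stopped with EDTA buffer containing phospho-Bad (Ser112) antibody and AlphaScreen donor/acceptor beads. Plates were read after 1 h dark incubation at room temperature.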
# [2] = target: Pim-1 (Homo sapiens (Human), UniProt P11309); test: Pim-1 kinase assay; conditions: 1 mM ATP; read-out: Pim1 IC50
# Description: Supplementation of the STOP buffer with beads and stopping the reactions were done under reduced light. Prior to the stopping reactions STOP buffer with beads was preincubated for 1 h in the dark at room temperature. After stopping the reactions, plates were incubated for 1 h in the dark at room temperature before reading on a PHERAstar FS plate reader (BMG Labtech) under reduced light.
# [3] = target: Pim-2 (Homo sapiens (Human), UniProt Q9P1W9); test: Pim-2 kinase assay; conditions: 1 mM ATP; read-out: Pim2 IC50
# How it was run: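 Pim-2 (1 nM) with fluorescein-CREBtide ([…]) and 1 mM ATP in Tris pH 7.5, MgCl2, DTT buffer, 2 h at 25 °C. Stopped with EDTA plus Tb-anti-CREB pSer133 antibody; phosphorylation read by TR-FRET after 30 min.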
# Pim-2, sequence (Q9P1W9 whole entry): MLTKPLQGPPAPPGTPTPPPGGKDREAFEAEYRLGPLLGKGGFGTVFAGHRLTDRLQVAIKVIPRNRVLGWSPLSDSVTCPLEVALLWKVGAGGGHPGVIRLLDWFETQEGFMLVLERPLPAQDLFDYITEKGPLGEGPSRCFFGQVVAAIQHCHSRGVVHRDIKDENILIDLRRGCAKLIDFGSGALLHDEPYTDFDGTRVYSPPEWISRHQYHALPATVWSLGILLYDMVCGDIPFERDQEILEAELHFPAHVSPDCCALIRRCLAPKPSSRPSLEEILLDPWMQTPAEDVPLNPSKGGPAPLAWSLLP
# Pim-1, sequence (P11309 whole entry): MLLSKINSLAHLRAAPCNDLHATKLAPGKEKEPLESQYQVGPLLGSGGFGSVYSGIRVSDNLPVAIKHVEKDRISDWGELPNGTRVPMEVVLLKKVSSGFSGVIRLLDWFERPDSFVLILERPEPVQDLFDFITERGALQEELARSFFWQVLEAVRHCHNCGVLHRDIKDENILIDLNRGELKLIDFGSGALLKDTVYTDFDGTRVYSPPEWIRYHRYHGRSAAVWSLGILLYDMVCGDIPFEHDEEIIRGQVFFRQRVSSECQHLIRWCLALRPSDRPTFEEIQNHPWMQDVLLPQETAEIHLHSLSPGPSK
Compound,IC50 [1] [nM],IC50 [2] [nM],IC50 [3] [nM]
"C[C@@H]1C[C@H](N)CN(c2ccncc2NCc2ccc(F)c(-c3c(F)cc(CN4CC[C@H](F)C4)cc3F)n2)C1 [Example 56, 4-((3S,5R)-3-amino-5-methylpiperidin-1-yl)-N-((6-(2,6-difluoro-4-(((S)-3-fluoropyrrolidin-1-yl)methyl)phenyl)-5-fluoropyridin-2-yl)methyl)pyridin-3-amine]",≤ 10,< 10,≤ 100
C[C@H]1CN(c2ccncc2NCc2ccc(F)c(C3=CCCCC3)n2)C[C@@H](N)[C@@H]1O [Example 57],≤ 10,< 10,100 to 1000
"C[C@@H]1C[C@H](N)CN(c2ccncc2NCc2ccc(F)c(C3CCCCC3)n2)C1 [Example 58, 4-[(3S,5R)-3-Amino-5-methylpiperidin-1-yl]-N-[(6-cyclohexyl-5-fluoropyridin-2-yl)methyl]pyridin-3-amine]",10 to 50,< 10,100 to 1000
"COC1(c2cc(F)c(-c3nc(CNc4cnccc4N4C[C@@H](N)[C@H](O)[C@@H](C)C4)ccc3F)c(F)c2)CCOCC1 [Example 59, (3R,4R,5S)-3-Amino-1-{3-[({6-[2,6-difluoro-4-(4-methoxytetrahydro-2H-pyran-4-yl)phenyl]-5-fluoropyridin-2-yl}methyl)amino]pyridin-4-yl}-5-methylpiperidin-4-ol]",≤ 10,< 10,100 to 1000
"COC1(c2cc(F)c(-c3nc(CNc4cnccc4N4C[C@H](C)C[C@H](N)C4)ccc3F)c(F)c2)CCOCC1 [Example 60, 4-[(3S,5R)-3-Amino-5-methylpiperidin-1-yl]-N-({6-[2,6-difluoro-4-(4-methoxytetrahydro-2H-pyran-4-yl)phenyl]-5-fluoropyridin-2-yl}methyl)pyridin-3-amine]",≤ 10,< 10,100 to 1000
"C[C@H]1CN(c2ccncc2NCc2ccc(F)c(-c3c(F)cc(C4(F)CCOCC4)cc3F)n2)C[C@@H](N)[C@@H]1O [Example 61, (3R,4R,5S)-3-Amino-1-{3-[({6-[2,6-difluoro-4-(4-fluorotetrahydro-2H-pyran-4-yl)phenyl]-5-fluoropyridin-2-yl}methyl)amino]pyridin-4-yl}-5-methylpiperidin-4-ol]",≤ 10,< 10,≤ 100
"C[C@@H]1C[C@H](N)CN(c2ccncc2NCc2ccc(F)c(-c3c(F)cc(C4(F)CCOCC4)cc3F)n2)C1 [Example 62, 4-[(3S,5R)-3-Amino-5-methylpiperidin-1-yl]-N-({6-[2,6-difluoro-4-(4-fluorotetrahydro-2H-pyran-4-yl)phenyl]-5-fluoropyridin-2-yl}methyl)pyridin-3-amine]",≤ 10,< 10,≤ 100
"C[C@H]1CN(c2ccncc2NCc2ccc(F)c(-c3c(F)cc(C4CCOCC4)cc3F)n2)C[C@@H](N)[C@@H]1O [Example 63, (3R,4R,5S)-3-Amino-1-{3-[({6-[2,6-difluoro-4-(tetrahydro-2H-pyran-4-yl)phenyl]-5-fluoropyridin-2-yl}methyl)amino]pyridin-4-yl}-5-methylpiperidin-4-ol]",≤ 10,< 10,≤ 100
"C[C@@H]1C[C@H](N)CN(c2ccncc2NCc2ccc(F)c(-c3c(F)cc(C4CCOCC4)cc3F)n2)C1 [Example 64, 4-[(3S,5R)-3-Amino-5-methylpiperidin-1-yl]-N-({6-[2,6-difluoro-4-(tetrahydro-2H-pyran-4-yl)phenyl]-5-fluoropyridin-2-yl}methyl)pyridin-3-amine]",≤ 10,< 10,≤ 100
"N[C@H]1C[C@@H](C(F)(F)F)CN(c2ccncc2NCc2ccc(F)c(-c3c(F)cc(C4CCOCC4)cc3F)n2)C1 [Example 65, 4-((3S,5R)-3-Amino-5-(trifluoromethyl)piperidin-1-yl)-N-((6-(2,6-difluoro-4-(tetrahydro-2H-pyran-4-yl)phenyl)-5-fluoropyridin-2-yl)methyl)pyridin-3-amine]",≤ 10,< 10,≤ 100
"C[C@@H]1C[C@H](N)C[C@H](c2ccncc2NCc2ccc(F)c(-c3c(F)cccc3F)n2)C1 [Example 66, 4-[(1R,3S,5S)-3-Amino-5-methylcyclohexyl]-N-{[6-(2,6-difluorophenyl)-5-fluoropyridin-2-yl]methyl}pyridin-3-amine]",≤ 10,< 10,100 to 1000
"C[C@@H]1C[C@H](N)C[C@H](c2ccncc2NCc2ccc(F)c(-c3c(F)cc(C4(O)CCC4)cc3F)n2)C1 [Example 67, 1-(4-{6-[({4-[(1R,3S,5S)-3-Amino-5-methylcyclohexyl]pyridin-3-yl}amino)methyl]-3-fluoropyridin-2-yl}-3,5-difluorophenyl)cyclobutanol]",≤ 10,< 10,100 to 1000
"C[C@@H]1C[C@H](N)C[C@H](c2ccncc2NCc2ccc(F)c(-c3c(F)cc(N4CCOCC4)cc3F)n2)C1 [Example 68, 4-[(1R,3S,5S)-3-Amino-5-methylcyclohexyl]-N-{[6-(2,6-difluoro-4-morpholin-4-ylphenyl)-5-fluoropyridin-2-yl]methyl}pyridin-3-amine]",≤ 10,< 10,100 to 1000
"C[C@@H]1C[C@H](N)CN(c2ccncc2NCc2nc(-c3c(F)cccc3F)sc2N)C1 [Example 69, N-{[5-Amino-2-(2,6-difluorophenyl)-1,3-thiazol-4-yl]methyl}-4-[(3S,5R)-3-amino-5-methylpiperidin-1-yl]pyridin-3-amine]",≤ 10,< 10,1000 to 10000
"C[C@@H]1C[C@H](N)CN(c2ccncc2NCc2ccc(F)c(-c3c(F)cc(N4CC[C@@H](F)C4)cc3F)n2)C1 [Example 70, 4-[(3S,5R)-3-Amino-5-methylpiperidin-1-yl]-N-[(6-{2,6-difluoro-4-[(3R)-3-fluoropyrrolidin-1-yl]phenyl}-5-fluoropyridin-2-yl)methyl]pyridin-3-amine]",≤ 10,< 10,100 to 1000
"C[C@@H]1C[C@H](N)CN(c2ccncc2NCc2ccc(F)c(-c3c(F)cc(N4CCCC(F)C4)cc3F)n2)C1 (stereo partly drawn) [Example 71, 4-[(3S,5R)-3-Amino-5-methylpiperidin-1-yl]-N-({6-[2,6-difluoro-4-(3-fluoropiperidin-1-yl)phenyl]-5-fluoropyridin-2-yl}methyl)pyridin-3-amine]",≤ 10,< 10,≤ 100
"C[C@@H]1C[C@H](N)CN(c2ccncc2NCc2ccc(F)c(-c3c(F)cc(N4CC(C)(O)C4)cc3F)n2)C1 [Example 72, 1-(4-{6-[({4-[(3S,5R)-3-Amino-5-methylpiperidin-1-yl]pyridin-3-yl}amino)methyl]-3-fluoropyridin-2-yl}-3,5-difluorophenyl)-3-methylazetidin-3-ol]",≤ 10,< 10,≤ 100
"C[C@H]1CN(c2ccncc2NCc2ccc(F)c(-c3c(F)cc(O[C@@H]4CCOC4)cc3F)n2)C[C@@H](N)[C@@H]1O [Example 73, (3R,4R,5S)-3-Amino-1-(3-{[(6-{2,6-difluoro-4-[(3R)-tetrahydrofuran-3-yloxy]phenyl}-5-fluoropyridin-2-yl)methyl]amino}pyridin-4-yl)-5-methylpiperidin-4-ol]",≤ 10,< 10,≤ 100
"C[C@@H]1C[C@H](N)CN(c2ccncc2NCc2ccc(F)c(-c3c(F)cc(O[C@@H]4CCOC4)cc3F)n2)C1 [Example 74, 4-[(3S,5R)-3-Amino-5-methylpiperidin-1-yl]-N-[(6-{2,6-difluoro-4-[(3R)-tetrahydrofuran-3-yloxy]phenyl}-5-fluoropyridin-2-yl)methyl]pyridin-3-amine]",≤ 10,< 10,≤ 100
"C[C@H]1CN(c2ccncc2NCc2ccc(F)c(-c3c(F)cc(O[C@H]4CCOC4)cc3F)n2)C[C@@H](N)[C@@H]1O [Example 75, (3R,4R,5S)-3-Amino-1-(3-{[(6-{2,6-difluoro-4-[(3S)-tetrahydrofuran-3-yloxy]phenyl}-5-fluoropyridin-2-yl)methyl]amino}pyridin-4-yl)-5-methylpiperidin-4-ol]",≤ 10,< 10,≤ 100
"C[C@@H]1C[C@H](N)CN(c2ccncc2NCc2ccc(F)c(-c3c(F)cc(O[C@H]4CCOC4)cc3F)n2)C1 [Example 76, 4-[(3S,5R)-3-Amino-5-methylpiperidin-1-yl]-N-[(6-{2,6-difluoro-4-[(3S)-tetrahydrofuran-3-yloxy]phenyl}-5-fluoropyridin-2-yl)methyl]pyridin-3-amine]",≤ 10,< 10,≤ 100
"C[C@H]1CN(c2ccncc2NCc2ccc(F)c(-c3c(F)cc(OC4CCOCC4)cc3F)n2)C[C@@H](N)[C@@H]1O [Example 77, (3R,4R,5S)-3-Amino-1-{3-[({6-[2,6-difluoro-4-(tetrahydro-2H-pyran-4-yloxy)phenyl]-5-fluoropyridin-2-yl}methyl)amino]pyridin-4-yl}-5-methylpiperidin-4-ol]",≤ 10,< 10,≤ 100
